Experimental findings from patent publication USRE47302E1 (ONYX THERAPEUTICS INC., priority 2013, dated 2019) are described below.

The structures appear in SMILES notation. In brackets after ≈: the same amount, converted by molar mass.

One data set in a line: Solubility pH 7. As to conditions: pH 7.
`COc1ccc(C[C@H](NC(=O)[C@H](C)NC(=O)CN2CCOCC2)C(=O)N[C@@H](C[C@H]2CCOC2)C(=O)[C@@]2(C)CO2)cc1` [Compound C-1025, (S)-3-(4-methoxyphenyl)-N-((S)-1-((R)-2-methyloxiran-2-yl)-1-oxo-3-((S)-tetrahydrofuran-3-yl)propan-2-yl)-2-((S)-2-(2-morpholinoacetamido)propanamido) propanamide]: the “Solubility pH 7 (μg/mL)” value was over 10 μg/mL.

Staying with this data set, now noted: pH 7, aqueous buffer.
On to `COc1ccc(C[C@H](NC(=O)[C@H](C)NC(=O)CN2CCOCC2)C(=O)N[C@@H](C[C@H]2CC[C@H](O)CC2)C(=O)[C@@]2(C)CO2)cc1` [Compound C-1002, (S)-N-((S)-3-((1r,4S)-4-hydroxycyclohexyl)-1-((R)-2-methyloxiran-2-yl)-1-oxopropan-2-yl)-3-(4-methoxyphenyl)-2-((S)-2-(2-morpholinoacetamido)propanamido)propanamide], for which the solubility worked out at 3190 µg/mL (≈ 5.29 mM).

As to `COc1ccc(C[C@H](NC(=O)[C@H](C)NC(=O)CN2CCOCC2)C(=O)N[C@@H](C[C@@H]2CCCO2)C(=O)[C@@]2(C)CO2)cc1` [Compound C-1016, (S)-3-(4-methoxyphenyl)-N-((S)-1-((R)-2-methyloxhan-2-yl)-1-oxo-3-((S)-tetrahydrofuran-2-yl)propan-2-yl)-2-((S)-2-(2-morpholinoacetamido)propanamido)propanamide], the concentration in solution (solubility) came to 6890 µg/mL (≈ 12 mM).

`COc1ccc(C[C@H](NC(=O)[C@H](C)NC(=O)CN2CCOCC2)C(=O)N[C@@H](CC2CNC(=O)C2)C(=O)[C@@]2(C)CO2)cc1` (stereo partly drawn) [Compound C-1035, (2S)-3-(4-methoxyphenyl)-N-((2S)-1-((R)-2-methyloxiran-2-yl)-1-oxo-3-(5-oxopyrrolidin-3-yl)propan-2-yl)-2-((S)-2-(2-morpholinoacetamido)propanamido)propanamide] had a solubility of over 10 µg/mL.

`COc1ccc(C[C@H](NC(=O)[C@H](C)NC(=O)CN2CCOCC2)C(=O)N[C@@H](C[C@H]2CCN(C)C2=O)C(=O)[C@@]2(C)CO2)cc1` [Compound C-1040, (2S)-3-(4-methoxyphenyl)-N-((2S)-3-(1-methyl-2-oxopyrrolidin-3-yl)-1-((R)-2-methyloxiran-2-yl)-1-oxopropan-2-yl)-2-((S)-2-(2-morpholinoacetamido)propanamido) propanamide] yielded a solubility of 12300 µg/mL (≈ 20.5 mM).

As to `COc1ccc(C[C@H](NC(=O)[C@H](C)NC(=O)CN2CCOCC2)C(=O)N[C@@H](CN2CCCC2=O)C(=O)[C@@]2(C)CO2)cc1` [Compound C-1042, (S)-3-(4-methoxyphenyl)-N-((S)-1-((R)-2-methyloxiran-2-yl)-1-oxo-3-(2-oxopyrrolidin-1-yl)propan-2-yl)-2-((S)-2-(2-morpholinoacetamido)propanamido)propanamide], the solubility is 8780 µg/mL (≈ 14.9 mM).

As for `COc1ccc(C[C@H](NC(=O)[C@@H](C)NC(=O)[C@H]2CNC(=O)C2)C(=O)N[C@@H](CC2CCCC2)C(=O)[C@@]2(C)CO2)cc1` [Compound C-1067, (R)-N-((R)-1-(((S)-1-(((S)-3-cyclopentyl-1-((R)-2-methyloxiran-2-yl)-1-oxopropan-2-yl)amino)-3-(4-methoxyphenyl)-1-oxopropan-2-yl)amino)-1-oxopropan-2-yl)-5-oxopyrrolidine-3-carboxamide], the concentration in solution (solubility) came to 4590 µg/mL (≈ 8.25 mM).

Compound `COc1ccc(C[C@H](NC(=O)[C@@H](C)NC(=O)[C@@H]2CNC(=O)C2)C(=O)N[C@@H](CC2CCCC2)C(=O)[C@@]2(C)CO2)cc1` [Compound C-1068, (S)-N-((R)-1-(((S)-1-(((S)-3-cyclopentyl-1-((R)-2-methyloxiran-2-yl)-1-oxopropan-2-yl)amino)-3-(4-methoxyphenyl)-1-oxopropan-2-yl)amino)-1-oxopropan-2-yl)-5-oxopyrrolidine-3-carboxamide] came in with a solubility of 4410 µg/mL (≈ 7.92 mM).

The solubility is the concentration that dissolves in the medium under given conditions. Read a low solubility as a poorly soluble substance.
